compound: Cc1ccc2nc(NCCN)c3ncc(C)n3c2c1 + CCNC(=O)c1noc(-c2cc(C(C)C)c(O)cc2O)c1-c1ccc(CN2CCOCC2)cc1 [Luminespib] (partner 0.01 µM); assay: relative viability (nuclei count vs DMSO), 5 days (fraction); higher = more cells survive; details: first compound 0.04 µM
In short: (§1)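 Dosing by pin tool came one day after lung cancer cell lines were seeded in 1536-well plates, using either one drug or a fixed anchor-drug dose plus five library-drug doses (not always all listed) in √10 steps. After 5 days, nuclei were counted on 4× images. Relative viability is treated-well nuclei count divided by vehicle-well nuclei count, and values are medians of duplicate plates.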

Cell Line	relative viability
NCI-H522	1.26
NCI-H2342	0.797
NCI-H727	0.36
NCI-H1650	0.242
NCI-H1993	1.01
SW 1573	0.287
NCI-H838	0.362
LCLC-103H	0.887
NCI-H520	0.204
NCI-H2126	0.998
EMC-BAC-2	1.21
NCI-H2085	0.492
NCI-H1666	0.963
NCI-H596	1.12
LK-2	0.198
NCI-H2087	0.214

Cell Line	relative viability
NCI-H358	0.309
NCI-H2170	0.637
H3255	0.878
COR-L23	0.682
COR-L 105	0.921
LOU-NH91	0.342
ChaGo-K-1	0.7
NCI-H1793	0.577
NCI-H2405	0.841
HOP-62	0.916
HCC-44	1.07
SK-MES-1	0.835
LU99A	0.274
NCI-H1792	0.49
NCI-H1623	0.478
NCI-H1563	0.491

same assay, conditions: first compound 0.1265 µM

Cell Line	relative viability
NCI-H522	1.12
NCI-H2342	0.638
NCI-H1650	0.213
NCI-H1993	0.944
SW 1573	0.185
NCI-H838	0.344
LCLC-103H	0.927
NCI-H520	0.216
NCI-H2126	0.867
EMC-BAC-2	1.2
NCI-H2085	0.463
NCI-H1666	0.994
NCI-H596	0.959
LK-2	0.194
NCI-H2087	0.2
NCI-H358	0.373

Cell Line	relative viability
NCI-H2170	0.699
H3255	1.01
COR-L23	0.644
COR-L 105	0.529
LOU-NH91	0.31
ChaGo-K-1	0.565
NCI-H1793	0.168
NCI-H2405	0.631
HOP-62	0.941
HCC-44	1.04
SK-MES-1	0.791
LU99A	0.28
NCI-H1792	0.434
NCI-H1623	0.684
NCI-H1563	0.509

same assay, conditions: first compound 0.4 µM

Cell Line	relative viability
NCI-H522	1.04
NCI-H2342	0.616
NCI-H727	0.358
NCI-H1650	0.195
NCI-H1993	0.902
SW 1573	0.204
NCI-H838	0.324
LCLC-103H	0.931
NCI-H520	0.231
NCI-H2126	0.917
EMC-BAC-2	1.19
NCI-H2085	0.446
NCI-H1666	1.07
NCI-H596	0.967
LK-2	0.182
NCI-H2087	0.152

Cell Line	relative viability
NCI-H358	0.236
NCI-H2170	0.516
H3255	0.824
COR-L23	0.763
COR-L 105	0.603
LOU-NH91	0.31
ChaGo-K-1	0.608
NCI-H1793	0.182
NCI-H2405	0.732
HOP-62	0.648
HCC-44	1.06
SK-MES-1	0.74
LU99A	0.242
NCI-H1623	0.51
NCI-H1563	0.517

same assay, conditions: first compound 1.265 µM

Cell Line	relative viability
NCI-H522	1.14
NCI-H2342	0.719
NCI-H727	0.385
NCI-H1650	0.214
NCI-H1993	0.887
SW 1573	0.151
NCI-H838	0.3
LCLC-103H	0.925
NCI-H520	0.191
NCI-H2126	0.89
EMC-BAC-2	1.2
NCI-H2085	0.442
NCI-H1666	0.915
NCI-H596	0.215
LK-2	0.185
NCI-H2087	0.267

Cell Line	relative viability
NCI-H358	0.326
NCI-H2170	0.855
H3255	0.926
COR-L23	0.47
COR-L 105	0.57
LOU-NH91	0.36
ChaGo-K-1	0.517
NCI-H1793	0.181
NCI-H2405	0.563
HOP-62	0.965
HCC-44	1.05
SK-MES-1	0.772
LU99A	0.254
NCI-H1792	0.396
NCI-H1623	0.346
NCI-H1563	0.466

same assay, conditions: first compound 4 µM

Cell Line	relative viability
NCI-H522	1.17
NCI-H2342	0.677
NCI-H727	0.4
NCI-H1650	0.212
NCI-H1993	0.859
SW 1573	0.106
NCI-H838	0.258
LCLC-103H	0.858
NCI-H520	0.235
NCI-H2126	0.832
EMC-BAC-2	1.13
NCI-H2085	0.393
NCI-H1666	1.01
NCI-H596	1.05
LK-2	0.197
NCI-H2087	0.162

Cell Line	relative viability
NCI-H358	0.313
NCI-H2170	0.64
H3255	0.76
COR-L23	0.625
COR-L 105	0.497
LOU-NH91	0.318
ChaGo-K-1	0.643
NCI-H1793	0.215
NCI-H2405	0.595
HOP-62	0.913
HCC-44	0.591
SK-MES-1	0.74
LU99A	0.261
NCI-H1792	0.432
NCI-H1623	0.348
NCI-H1563	0.485

compound: Cc1ccc2nc(NCCN)c3ncc(C)n3c2c1 + Cc1nc(Nc2ncc(C(=O)Nc3c(C)cccc3Cl)s2)cc(N2CCN(CCO)CC2)n1 [Dasatinib] (partner 0.075 µM); assay: as above; details: first compound 0.04 µM
In short: as §1

Cell Line	relative viability
NCI-H522	0.882
NCI-H2342	0.363
NCI-H727	0.4
NCI-H1650	0.33
